Common to all, as to type: in vitro ADME
Series [1] relates to Ugt2b7. Put plainly: Ki for Ugt2b7 in mouse liver microsomes. Conditions: our unpublished data. For orientation: Liver microsomes are vesicles of endoplasmic reticulum, rich in cytochrome P450 enzymes.
For series [2], the target named is T1, Ugt1a1 (Mus musculus, UniProt Q63886).
T1 construct: from tissue; host or cells: mouse liver microsomes prepared in house
T1 sequence (Q63886 30-535): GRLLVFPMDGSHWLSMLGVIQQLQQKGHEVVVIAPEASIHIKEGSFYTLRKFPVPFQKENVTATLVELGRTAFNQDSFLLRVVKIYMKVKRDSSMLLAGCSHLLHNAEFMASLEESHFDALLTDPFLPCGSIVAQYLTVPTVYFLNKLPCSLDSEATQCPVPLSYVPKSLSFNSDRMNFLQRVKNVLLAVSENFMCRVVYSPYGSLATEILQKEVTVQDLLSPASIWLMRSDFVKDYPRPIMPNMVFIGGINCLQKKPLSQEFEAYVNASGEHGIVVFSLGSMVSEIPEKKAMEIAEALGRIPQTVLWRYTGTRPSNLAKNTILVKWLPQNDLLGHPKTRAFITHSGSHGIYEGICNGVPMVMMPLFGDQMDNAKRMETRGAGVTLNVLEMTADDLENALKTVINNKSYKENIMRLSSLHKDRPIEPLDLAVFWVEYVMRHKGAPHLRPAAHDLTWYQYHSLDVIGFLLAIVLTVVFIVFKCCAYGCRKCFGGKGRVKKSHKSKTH
Put plainly: Inhibition of Ugt1a1 (β-estradiol) in mice liver microsomes. The settings on record: pH 7.6, probe β-estradiol (10 μM, in UGT substrate cocktail), read-out: IC50 of Ugt1a1-catalyzed β-estradiol. On the procedure:
(§1) Their IC50 values were compared to that of sauchinone. […] Mice were sacrificed and then livers were removed and rinsed with saline. After weighing the livers, they were homogenized with a four-fold volume of ice-cold homogenizing buffer (0.154 M KCl, 50 mM Tris-base, 1 mM EDTA, pH 7.4). After centrifugation for 35 min at 9000× g and 4 °C, the supernatants were centrifuged for 95 min at 100,000× g and at 4 °C. The supernatants were discarded and the pellets were homogenized again with ice-cold homogenizing buffer. These aliquots were stored at −80 °C. The subsequent process to evaluate the inhibitory effects of sauchinone on UGT activities in MLM was the same as those using HLM. UGT-mediated activities in the presence of sauchinone as an inhibitor were expressed as percentages of corresponding control values (in absence of sauchinone). From percentages of control activity versus inhibitor concentrations, a sigmoid shaped curve was fitted to the data and IC50 as an enzyme inhibition parameter was calculated by fitting the Hill equation to the data using GraphPad Prism 5 (GraphPad Software Inc., San Diego, CA, USA).

Series [3] concerns Ugt1a3. Put plainly: Inhibition of Ugt1a3 (CDCA) in mice liver microsomes. The settings on record: mouse, pH 7.6, read-out: IC50 of Ugt1a3-catalyzed CDCA. On the procedure:
as §1

Series [4] addresses T2, UGT1A9 (Homo sapiens, UniProt O60656).
T2 construct: The reaction mixture containing 0.25 mg/mL protein of HLM; tissue Corning Life Sciences 452156; host or cells: pooled human liver microsomes, 50 donors
T2 sequence (O60656 26-530): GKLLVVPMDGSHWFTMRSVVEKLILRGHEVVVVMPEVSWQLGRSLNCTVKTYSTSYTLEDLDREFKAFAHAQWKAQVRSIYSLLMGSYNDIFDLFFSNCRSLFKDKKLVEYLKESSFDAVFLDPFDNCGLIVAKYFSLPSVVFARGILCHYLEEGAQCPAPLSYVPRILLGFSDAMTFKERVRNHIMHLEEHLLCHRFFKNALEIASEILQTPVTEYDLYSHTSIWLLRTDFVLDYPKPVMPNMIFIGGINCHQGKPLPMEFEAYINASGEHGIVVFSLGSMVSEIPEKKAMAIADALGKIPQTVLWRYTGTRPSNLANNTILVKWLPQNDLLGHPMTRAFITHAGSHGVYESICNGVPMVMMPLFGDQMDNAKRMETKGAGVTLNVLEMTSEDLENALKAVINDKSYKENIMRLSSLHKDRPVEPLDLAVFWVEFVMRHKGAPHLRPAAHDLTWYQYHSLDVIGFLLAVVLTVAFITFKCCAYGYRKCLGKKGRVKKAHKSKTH
Put plainly: Inhibition of UGT1A9 (propofol glucuronidation) in human liver microsomes. The protocol:
Their IC50 values were compared to that of sauchinone. […] UGT-mediated activities in the presence of sauchinone as an inhibitor were expressed as percentages of corresponding control values (in absence of sauchinone). From percentages of control activity versus inhibitor concentrations, a sigmoid shaped curve was fitted to the data and IC50 as an enzyme inhibition parameter was calculated by fitting the Hill equation to the data using GraphPad Prism 5 (GraphPad Software Inc., San Diego, CA, USA).

Where only a bound is given, the exact number is not on record here.

For orientation: Ki means the equilibrium dissociation constant of an inhibitor or competing ligand from its target. A lower Ki goes with a stronger hold on the target. The term IC50 denotes the point on the concentration scale where inhibition reaches its midpoint.

Molecule `C[C@@H]1[C@H]2c3cc4c(cc3O[C@@]35OCOC3=CC(=O)[C@H](C[C@H]1C)[C@@H]25)OCO4` [Sauchinone] showed an inhibitory constant (Ki) in series [1] of 3.34 µM. The IC50 was 152 µM in series [2]; 79.9 µM in series [3]; > 200 µM in series [4] (substrate 100 μM propofol, mean (minimum–maximum)). Further, in series [4] (sauchinone up to 200 μM), the “inhibitory effect on UGT1A9 activity” value was “negligible inhibitory effect”.
